Source: patent US20230127965A1, “METHODS FOR TREATING, AMELIORATING, OR PREVENTING VIRAL INFECTIONS” (Thomas Jefferson University, priority 2020, published 2023)
“Also recorded” adds a separate entry of the source.

How the values were obtained:
Format in all cases: cell-based
SARS-CoV-2 = system: SARS-CoV-2
androgen receptor (AR) = system: androgen receptor (AR)
Dengue virus = Dengue virus infection of U2OS cells, qPCR; details: 10 μM, treated 2 hours before infection, MOI of 1, ~16-18 hours (FIG. 6)
Zika virus = Zika virus infection of U2OS cells, qPCR; details: 10 μM, treated 2 hours before infection, MOI of 1, ~16-18 hours (FIG. 7)
Powassan virus = system: Powassan virus

Structure (SMILES) | blocked SARS-CoV-2 infection (fold) (SARS-CoV-2) | effect on SARS-CoV-2 infection (in words) (SARS-CoV-2) | DHT induced AR transcriptional activity (androgen receptor (AR)) | Dengue virus infection (fold change, qPCR) (Dengue virus) | Zika virus infection (fold change, qPCR) (Zika virus) | Powassan virus infection (fold change, qPCR) (Powassan virus)
N=C(Nc1ccc(I)cc1)NC1C2CC3CC(C2)CC1C3 (stereo not shown) [IPAG] | 1,000 fold | inhibit SARS-CoV-2 infection | inhibition | – | – | –
Cc1cc(OCCN2CCOCC2)nn1-c1ccc2ccccc2c1 [Compound S1RA, 4-[2-[[5-methyl-1-(2-naphthalenyl)-1H-pyrazol-3-yl]oxy]ethyl]morpholine] | – | did not block infection; also recorded: does not block infection | – | – | – | –
N=C(NCCCOc1ccc(F)cc1)Nc1ccc(Cl)cc1 [CT189] | 1,000 fold | inhibit SARS-CoV-2 infection | inhibition | inhibit | inhibit | inhibit
COc1ccc(CCN2CCN(CCCc3ccccc3)CC2)cc1OC [SA4503, 1-(3,4-dimethoxyphenethyl)-4-(3-phenylpropyl) piperazine] | – | did not block infection | – | – | – | –
O=C(OCCN1CCOCC1)C1(c2ccccc2)CCCCC1 [PRE084, 2-morpholin-4-ylethyl 1-phenylcyclohexane-1-carboxylate] | – | did not block infection | – | – | – | –
O=C(CCCN1CCC(O)(c2ccc(Cl)cc2)CC1)c1ccc(F)cc1 [Haloperidol, 4-[4-(4-chlorophenyl)-4-hydroxypiperidin-1-yl]-1-(4-fluorophenyl)butan-1-one] | – | clear but modest antiviral effect | – | – | – | –
